Laboratory results reported in PubChem BioAssay (NCI).
Where “and” joins values, the source holds several entries; their conditions need not be identical. Equal values may be shown once.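 Briefly, cells in 96-well plates were exposed to five compound concentrations for 48 h, and endpoints were estimated by linear interpolation. Here, GI50 denotes the concentration required for 50% inhibition of growth. TGI: concentration producing complete growth inhibition.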

What was measured:
Test in all cases: NCI tumour cell line growth inhibition, 48 h
TK-10 renal = system: TK-10 renal
HS 578T breast = system: HS 578T breast
RPMI-8226 leukemia = system: RPMI-8226 leukemia
SW-620 colon = system: SW-620 colon
SNB-19 CNS = system: SNB-19 CNS
HCC-2998 colon = system: HCC-2998 colon
CCRF-CEM leukemia = system: CCRF-CEM leukemia
NCI-H226 lung = system: NCI-H226 lung
SK-MEL-2 melanoma = system: SK-MEL-2 melanoma
NCI/ADR-RES ovarian = system: NCI/ADR-RES ovarian

Compound | TGI (TK-10 renal) [µM] | TGI (HS 578T breast) [µM] | TGI (RPMI-8226 leukemia) [µM] | TGI (SW-620 colon) [µM] | TGI (SNB-19 CNS) [µM] | TGI (HCC-2998 colon) [µM] | TGI (CCRF-CEM leukemia) [µM] | GI50 (TK-10 renal) [µM] | GI50 (RPMI-8226 leukemia) [µM] | GI50 (SW-620 colon) [µM] | GI50 (SNB-19 CNS) [µM] | GI50 (NCI-H226 lung) [µM] | TGI (NCI-H226 lung) [µM] | GI50 (SK-MEL-2 melanoma) [µM] | TGI (SK-MEL-2 melanoma) [µM] | GI50 (HCC-2998 colon) [µM] | GI50 (NCI/ADR-RES ovarian) | TGI (NCI/ADR-RES ovarian) | GI50 (CCRF-CEM leukemia) [µM] | GI50 (HS 578T breast) [µM]
O=C1CN(c2cccc(Cl)c2)C(=O)CN1CCN1CC(=O)N(c2cccc(Cl)c2)CC1=O | > 100 | > 100 | > 100 | > 100 | > 100 | > 100 | > 100 | – | – | – | – | – | – | – | – | – | – | – | – | –
N[C@@H]1CCCC[C@@H]1N.O=P([O-])([O-])CN(CCN(CP(=O)([O-])[O-])CP(=O)([O-])[O-])CP(=O)([O-])[O-].[Pt+2] | > 25 | – | > 25 | > 25 | > 25 | > 25 | – | > 25 | > 25 | > 25 | > 25 | > 25 | > 25 | > 25 | > 25 | > 25 | – | – | – | –
CC(=O)O/N=C(/C)c1ccccc1O | > 100 | – | > 100 | > 100 | > 100 | > 100 | > 100 | – | – | – | – | – | > 100 | – | > 100 | – | – | – | – | –
O=C(/C=C/c1ccc([N+](=O)[O-])cc1)c1ccc(NCc2nc3ccccc3[nH]2)cc1 | 19.9 | – | – | 6.19 | 14.5 | 6.38 | 6.16 | – | – | – | – | – | – | – | 29.7 | – | – | – | – | –
Cc1cc2c(C)[nH]nc2c(C(=O)O)c1C | – | – | > 100 | > 100 | > 100 | > 100 | > 100 | – | – | – | – | – | – | – | > 100 | – | – | – | – | –
C/C(=N/Nc1ccc([N+](=O)[O-])cc1[N+](=O)[O-])C(CC(C(=O)NCc1ccccc1)/C(C)=N\Nc1ccc([N+](=O)[O-])cc1[N+](=O)[O-])C(=O)NCc1ccccc1 (stereo not given) | – | – | 44.8 | 24.4 | 31 | 33.9 | – | – | – | – | – | – | 25.8 | – | 23.9 | – | – | – | – | –
CC(=O)OCCOCNC(=S)N/N=C(\C)c1cnccn1 | > 100 | – | > 100 | > 100 | > 100 | > 100 | > 100 | – | – | – | – | – | 79.7 | – | > 100 | – | – | – | – | –
c1ccc(NCn2cnc3ccccc32)cc1 | > 100 | – | 71.6 | > 100 | > 100 | – | > 100 | – | – | – | – | – | > 100 | – | > 100 | – | – | – | – | –
CN(C)c1cc(NN=C(c2ccc(O)cc2)c2ccc(O)cc2)c([N+](=O)[O-])cc1[N+](=O)[O-] | 22 | – | 27.2 | 24.2 | 22.2 | 27.8 | 17.9 | 7.35 | 3.34 | 11.4 | 9.4 | 13.1 | 32.3 | 7.45 | 22.9 | 13.8 | 5.3 µM | 27 µM | 2.58 | –
Nc1cc(NN=C(c2ccc(O)cc2)c2ccc(O)cc2)c([N+](=O)[O-])cc1[N+](=O)[O-] | 6.98 | – | 6.46 | 2.93 | 7.12 | 3.51 | 6.13 | 2.22 | 2.15 | 1.58 | 2.32 | – | – | – | – | 1.57 | 3.49 µM | 11.6 µM | 2.54 | –
N#C/C(=C\c1cccc(Cl)c1Cl)c1ccccc1 | 91.6 | – | > 89.1 | > 72.4 | > 90.7 | > 100 | > 46.4 | – | – | – | – | – | > 100 | – | > 100 | – | – | – | – | –
COC(=O)CC(c1ccccc1)C1(c2ccccc2)SCCS1 (stereo not given) | > 290 | – | > 290 | > 290 | > 290 | > 290 | > 290 | – | – | – | – | – | > 290 | – | > 290 | – | – | – | – | –
COc1ccc(OC)c(N2CC(N)C2=O)c1 (stereo not given) | > 100 | – | > 100 | > 100 | > 100 | > 100 | > 100 | – | – | – | – | – | > 100 | – | > 100 | – | – | – | – | –
COc1ccc(C)cc1-c1cc(Sc2ccccc2)c(-c2cc(C)ccc2OC)o1 | > 31.6 | – | > 31.6 | > 31.6 | > 31.6 | > 31.6 | > 31.6 | – | – | – | – | – | > 31.6 | – | – | – | – | – | – | –
Cc1ccc(Oc2ccc(C)cc2N)cc1 | > 100 | – | > 100 | > 100 | > 100 | > 100 | > 100 | – | – | – | – | – | > 100 | – | > 100 | – | – | – | – | –
COc1cc(C2CC(C)(O)Oc3cc4c(cc32)OCO4)cc(OC)c1OC (stereo not given) | > 100 | 0.696 | 18.7 | > 100 | > 100 | 34.8 | > 100 | – | – | – | – | – | – | – | – | – | – | – | – | –
CCCCCCCCCCCCCCCC[N+](C)(C)Cc1ccccc1 | – | 4.89 | 0.239 | – | – | 2.38 | – | – | 0.0516 | – | – | – | – | – | – | 0.923 | 14.4 µM and 12 µM | 45.1 µM and 42 µM | – | 1.82

Compound | TGI (TK-10 renal) [µM] | TGI (HS 578T breast) [µM] | TGI (RPMI-8226 leukemia) [µM] | TGI (SW-620 colon) [µM] | TGI (SNB-19 CNS) [µM] | TGI (HCC-2998 colon) [µM] | TGI (CCRF-CEM leukemia) [µM] | GI50 (TK-10 renal) [µM] | GI50 (RPMI-8226 leukemia) [µM] | GI50 (SW-620 colon) [µM] | GI50 (SNB-19 CNS) [µM] | GI50 (NCI-H226 lung) [µM] | TGI (NCI-H226 lung) [µM] | GI50 (SK-MEL-2 melanoma) [µM] | TGI (SK-MEL-2 melanoma) [µM] | GI50 (HCC-2998 colon) [µM] | GI50 (NCI/ADR-RES ovarian) | TGI (NCI/ADR-RES ovarian) | GI50 (CCRF-CEM leukemia) [µM] | GI50 (HS 578T breast) [µM]
COc1cccc(C2SC(N)=Nc3c2c(C)nn3C(=O)c2ccccc2O)c1 (stereo not given) | > 10 | – | > 10 | > 10 | > 10 | > 10 | > 10 | – | – | – | – | – | > 7.78 | – | > 10 | – | – | > 10 µM | – | –
CCc1c(OC(C)=O)c2c(NC3OCC(OC(C)=O)C(OC(C)=O)C3OC(C)=O)nc(SC)nc2oc1=O (stereo not given) | > 100 | – | > 100 | > 100 | > 100 | > 100 | > 100 | – | – | – | – | – | > 100 | – | > 100 | – | – | – | – | –
CC(=O)NNc1nc(C)c(C(=O)/C=C/c2ccc(NC(C)=O)cc2)s1 | > 100 | – | > 100 | > 100 | > 100 | > 100 | > 100 | – | – | – | – | – | – | – | > 100 | – | – | – | – | –
CCCOc1cc2ccccc2cc1C(=O)Nc1nc(N)c2c(ccc3nccc32)[nH]1 | 2.06 | – | 2.15 | 1.8 | 2.08 | 1.86 | 1.49 | 0.458 | 0.113 | 0.0377 | 0.0655 | 1.31 | 3.32 | 0.0368 | 1.32 | 0.22 | 0.0962 µM | 2.24 µM | 0.042 | –
O=S(=O)(N/N=C/c1cccc(/C=N/NS(=O)(=O)c2ccccc2)c1)c1ccccc1 | > 100 | – | > 100 | – | – | > 100 | > 100 | – | – | – | – | – | > 100 | – | > 100 | – | – | – | – | –
O=c1ccc2ccccc2cc1[O-].O=c1ccc2ccccc2cc1[O-].[O]=[U+2]=[O] | 66.3 | – | > 100 | 39.7 | – | – | > 100 | 17 | 17 | 7.76 | – | – | – | 11.7 | 38.1 | – | – | – | 6.14 | –
CC(C)(C)c1cc2c(O)c3cccc4c(=O)c5cccc6c5-c(c34)c2c(c1)c6=O | > 100 | – | – | > 100 | > 100 | 0.0657 | > 100 | – | – | – | – | – | > 100 | – | > 100 | – | – | – | – | –
Cc1ccc(-n2c3nc(=O)[nH]c(=O)c-3cc3cc([N+](=O)[O-])ccc32)cc1 | 64.5 | – | 21.3 | > 100 | 74 | 28.6 | > 100 | 29.3 | 3.95 | 4.71 | 17.3 | 24.6 | 86 | 44.2 | > 100 | 14.6 | 10.7 µM | 34.4 µM | 4.67 | –
CCOC(=O)C1=C(C(=O)OCC)C2c3ccccc3C=CN2C(C(=O)OCC)=C(SC)S1 (stereo not given) | > 100 | – | > 100 | > 100 | > 100 | > 100 | > 100 | – | – | – | – | – | > 100 | – | > 100 | – | – | – | – | –
COc1nc(NC2OC(COC(C)=O)C(OC(C)=O)C(OC(C)=O)C2OC(C)=O)c2c(OC(C)=O)cc(=O)oc2n1 (stereo not given) | > 100 | – | > 100 | > 100 | > 100 | > 100 | > 100 | – | – | – | – | – | > 100 | – | > 100 | – | – | – | – | –
Cc1ccc(/C=C/C(=O)CCN(C)C)cc1 | 30.2 | – | > 100 | 30.2 | > 100 | 32.1 | 72.4 | – | – | – | – | – | 49.4 | – | – | – | – | – | – | –
CN(C)CCn1c2c3ccccc3ccc2c2oc(=O)c3ccccc3c21 | 25.1 | – | 43.2 | 32.4 | 29.4 | – | > 100 | – | – | – | – | – | – | – | 35 | – | – | – | – | –
CC(C)=CCC(O)C1=CC(=O)c2c(O)ccc(O)c2C1=O (stereo not given) | 3.04 | 6.2 | – | 3.3 | 7.78 | 3.68 | 0.399 | – | – | – | – | – | 2.3 | – | 3.83 | – | – | – | – | –
Oc1[nH]c2ccccc2c1N=Nc1nc(-c2ccc(Br)cc2)cs1 | 61.2 | 65 | – | > 100 | 40.7 | > 100 | 61.8 | – | – | – | – | – | – | – | > 100 | – | – | 44.1 µM | – | –
COC(=O)C(CCCN1C(=O)c2ccccc2C1=O)C(=O)OC | > 100 | – | – | > 100 | > 100 | > 100 | > 100 | – | – | – | – | – | > 100 | – | > 100 | – | – | – | – | –
CCCCN(CCCC)C(=O)C(=O)C(C(=O)c1ccc(OC)cc1)c1ccc(OC)cc1 (stereo not given) | > 100 | – | – | > 100 | > 100 | > 100 | > 100 | – | – | – | – | – | > 100 | – | > 100 | – | – | – | – | –
